Laboratory results reported in PMC7369637, “Inhibition of Resistance-Refractory P. falciparum Kinase PKG Delivers Prophylactic, Blood Stage, and Transmission-Blocking Antiplasmodial Activity” (Cell Chemical Biology, 2020).

Tested on: metabolite levels in Pf trophozoites and schizonts
Assay: Metabolomics (UHPLC-MS) of treated trophozoites and schizonts
Format: cell-based, Plasmodium falciparum
Experimental: Metabolomics experiments were performed as described elsewhere ([Murithi et al., 2019]). […] Following several washes, metabolites were extracted by 90% methanol containing 0.5 μM ^13C^15N-labelled aspartate as an internal standard. Nitrogen-dried samples were stored at -80°C. Samples were resuspended in high-performance liquid chromatography (HPLC) grade water that contained 1 μM chlorpropamide as an internal standard. They were then analyzed by ultra-high-performance liquid chromatography mass spectrometry UHPLC-MS ([Allman et al., 2016]). Data analysis was performed using the el-MAVEN software and the Metaboanalyst package in R Studio ([Murithi et al., 2019]).

SMILES: O=C1C(O)=C([C@H]2CC[C@H](c3ccc(Cl)cc3)CC2)C(=O)c2ccccc21 [ATQ, Atovaquone]
- Log2 fold change in 2-Hydroxy-2-methylbutanedioic acid level (schizonts): -0.013
- Log2 fold change in 2_3-Diphosphoglyceric acid level (schizonts): -0.049
- Log2 fold change in 3-phosphoglycerate level (schizonts): -0.461
- Log2 fold change in 4-aminobutyrate level (schizonts): 0.163
- Log2 fold change in 4-phosphopantothenate level (schizonts): -0.471
- Log2 fold change in 6-phospho-D-gluconate level (schizonts): -0.038
- Log2 fold change in ADP-D-glucose level (schizonts): 0.078
- Log2 fold change in CDP level (schizonts): -0.939
- Log2 fold change in CMP level (schizonts): -0.776
- Log2 fold change in D-glucosamine-1/6-phosphate level (schizonts): -0.254
- Log2 fold change in D-sedoheptulose-1/7-phosphate level (schizonts): -0.253
- Log2 fold change in DL-Pipecolic Acid level (schizonts): 0.155
- Log2 fold change in DLH level (schizonts): 0.054
- Log2 fold change in DLS level (schizonts): 0.295
- Log2 fold change in FAD level (schizonts): 0.00635
- Log2 fold change in FMN level (schizonts): -0.114
- Log2 fold change in GDP level (schizonts): -0.131
- Log2 fold change in GMP level (schizonts): 0.068
- Log2 fold change in HVDD level (schizonts): 0.015
- Log2 fold change in Hexose level (schizonts): 0.028
- Log2 fold change in IMP level (schizonts): 0.230
- Log2 fold change in N-Acetyl-L-alanine level (schizonts): -0.209
- Log2 fold change in N-acetyl-L-ornithine level (schizonts): 0.067
- Log2 fold change in N-acetyl-glutamate level (schizonts): 0.069
- Log2 fold change in N-acetyl-glutamine level (schizonts): -0.075
- Log2 fold change in N-carbamoyl-L-aspartate level (schizonts): 2.103
- Log2 fold change in NAD+ level (schizonts): -0.089
- Log2 fold change in NADP+ level (schizonts): -0.036
- Log2 fold change in NADPH level (schizonts): 0.265
- Log2 fold change in Octulose 8/1P level (schizonts): -0.088
- Log2 fold change in Octulose Bisphosphate level (schizonts): -0.059
- Log2 fold change in PD level (schizonts): 0.272
- Log2 fold change in PE level (schizonts): 0.257
- Log2 fold change in PEE level (schizonts): 0.222
- Log2 fold change in PEEK level (schizonts): 0.220
- Log2 fold change in PVNF level (schizonts): -0.058
- Log2 fold change in Pyroglutamic acid level (schizonts): -0.420
- Log2 fold change in Ribose-5-phosphate level (schizonts): -0.347
- Log2 fold change in S-adenosyl-L-homocysteine level (schizonts): -0.090
- Log2 fold change in Sedoheptulose bisphosphate level (schizonts): -0.159
- Log2 fold change in UDP level (schizonts): -1.390
- Log2 fold change in UDP-D-glucose level (schizonts): -0.006
- Log2 fold change in UDP-D-glucuronate level (schizonts): -0.062
- Log2 fold change in UDP-N-acetyl-glucosamine level (schizonts): -0.391
- Log2 fold change in UMP level (schizonts): -1.267
- Log2 fold change in a-ketoglutarate level (schizonts): -0.084
- Log2 fold change in acetyl-CoA level (schizonts): -0.850
- Log2 fold change in acetyl-aspartate level (schizonts): -0.355
- Log2 fold change in alanine/sarcosine level (schizonts): -0.266
- Log2 fold change in arginine level (schizonts): -0.203
- Log2 fold change in asparagine level (schizonts): -0.008
- Log2 fold change in aspartate level (schizonts): -0.839
- Log2 fold change in coenzyme A level (schizonts): -0.075
- Log2 fold change in cyclic-AMP level (schizonts): -0.213
- Log2 fold change in cytidine level (schizonts): -0.213
- Log2 fold change in dCDP level (schizonts): -0.147
- Log2 fold change in dCMP level (schizonts): -0.462
- Log2 fold change in dCTP level (schizonts): -0.058
- Log2 fold change in dGDP/ADP level (schizonts): -0.147
- Log2 fold change in dGMP/AMP level (schizonts): -0.148
- Log2 fold change in dTDP level (schizonts): -1.164
- Log2 fold change in dTMP level (schizonts): -1.035
- Log2 fold change in dTTP level (schizonts): -0.979
- Log2 fold change in dihydroorotate level (schizonts): 3.181
- Log2 fold change in folate level (schizonts): -0.209
- Log2 fold change in fructose-1-6-bisphosphate level (schizonts): -0.277
- Log2 fold change in fructose-6-phosphate level (schizonts): -0.212
- Log2 fold change in fumarate level (schizonts): -0.532
- Log2 fold change in glutamate level (schizonts): 0.117
- Log2 fold change in glutamine level (schizonts): -0.138
- Log2 fold change in glutathione disulfide level (schizonts): -0.224
- Log2 fold change in glutathione level (schizonts): -0.005
- Log2 fold change in guanosine level (schizonts): 0.426
- Log2 fold change in histidine level (schizonts): -0.171
- Log2 fold change in hydroxyproline/Aminolevulinate level (schizonts): -0.254
- Log2 fold change in hypoxanthine level (schizonts): -0.139
- Log2 fold change in inosine level (schizonts): -0.136
- Log2 fold change in isoleucine level (schizonts): -0.252
- Log2 fold change in lysine level (schizonts): 0.587
- Log2 fold change in malate level (schizonts): -0.393
- Log2 fold change in maleic acid level (schizonts): -0.266
- Log2 fold change in methionine level (schizonts): -0.241
- Log2 fold change in nicotinate level (schizonts): -0.183
- Log2 fold change in orotate level (schizonts): -1.303
- Log2 fold change in pantothenate level (schizonts): -0.167
- Log2 fold change in phenylalanine level (schizonts): -0.316
- Log2 fold change in phosphoenolpyruvate level (schizonts): -0.095
- Log2 fold change in proline level (schizonts): -0.320
- Log2 fold change in pyruvate level (schizonts): -1.011
- Log2 fold change in ribose level (schizonts): -0.223
- Log2 fold change in ribose-phosphate level (schizonts): -0.313
- Log2 fold change in ribulose-5-phosphate level (schizonts): -0.261
- Log2 fold change in serine level (schizonts): 0.028
- Log2 fold change in sn-glycerol-3-phosphate level (schizonts): -0.021
- Log2 fold change in succinate/Methylmalonic acid level (schizonts): -0.382
- Log2 fold change in thiamine level (schizonts): -0.051
- Log2 fold change in threonine/homoserine level (schizonts): -0.072
- Log2 fold change in tryptophan level (schizonts): -0.203
- Log2 fold change in tyrosine level (schizonts): -0.165
- Log2 fold change in xanthosine level (schizonts): -0.209
- Log2 fold change in xanthosine-5-phosphate level (schizonts): -0.537
- Log2 fold change in 2-Hydroxy-2-methylbutanedioic acid level (trophozoites): -0.127
- Log2 fold change in 2_3-Diphosphoglyceric acid level (trophozoites): -0.381
- Log2 fold change in 3-phosphoglycerate level (trophozoites): -0.429
- Log2 fold change in 4-aminobutyrate level (trophozoites): 0.101
- Log2 fold change in 4-phosphopantothenate level (trophozoites): -0.459
- Log2 fold change in 6-phospho-D-gluconate level (trophozoites): -0.286
- Log2 fold change in ADP-D-glucose level (trophozoites): -0.046
- Log2 fold change in CDP level (trophozoites): -0.509
- Log2 fold change in CMP level (trophozoites): -0.007
- Log2 fold change in D-glucosamine-1/6-phosphate level (trophozoites): -0.044
- Log2 fold change in D-sedoheptulose-1/7-phosphate level (trophozoites): -0.528
- Log2 fold change in DL-Pipecolic Acid level (trophozoites): -0.217
- Log2 fold change in DLH level (trophozoites): 0.019
- Log2 fold change in DLS level (trophozoites): -0.123
- Log2 fold change in FAD level (trophozoites): -0.090
- Log2 fold change in FMN level (trophozoites): -0.124
- Log2 fold change in GDP level (trophozoites): 0.014
- Log2 fold change in GMP level (trophozoites): 0.614
- Log2 fold change in HVDD level (trophozoites): 0.032
- Log2 fold change in Hexose level (trophozoites): -0.376
- Log2 fold change in IMP level (trophozoites): 0.044
- Log2 fold change in N-Acetyl-L-alanine level (trophozoites): -0.316
- Log2 fold change in N-acetyl-L-ornithine level (trophozoites): 0.096
- Log2 fold change in N-acetyl-glutamate level (trophozoites): -0.170
- Log2 fold change in N-acetyl-glutamine level (trophozoites): -0.082
- Log2 fold change in N-carbamoyl-L-aspartate level (trophozoites): 3.058
- Log2 fold change in NAD+ level (trophozoites): -0.186
- Log2 fold change in NADP+ level (trophozoites): -0.065
- Log2 fold change in NADPH level (trophozoites): -0.700
- Log2 fold change in Octulose 8/1P level (trophozoites): -0.033
- Log2 fold change in Octulose Bisphosphate level (trophozoites): -0.267
- Log2 fold change in PD level (trophozoites): 0.177
- Log2 fold change in PE level (trophozoites): 0.343
- Log2 fold change in PEE level (trophozoites): -0.149
- Log2 fold change in PEEK level (trophozoites): 0.046
- Log2 fold change in PVNF level (trophozoites): -0.949
- Log2 fold change in Pyroglutamic acid level (trophozoites): -0.555
- Log2 fold change in Ribose-5-phosphate level (trophozoites): -0.276
- Log2 fold change in S-adenosyl-L-homocysteine level (trophozoites): -0.313
- Log2 fold change in Sedoheptulose bisphosphate level (trophozoites): -0.304
- Log2 fold change in UDP level (trophozoites): -0.826
- Log2 fold change in UDP-D-glucose level (trophozoites): -0.168
- Log2 fold change in UDP-D-glucuronate level (trophozoites): -0.164
- Log2 fold change in UDP-N-acetyl-glucosamine level (trophozoites): -0.499
- Log2 fold change in UMP level (trophozoites): -0.377
- Log2 fold change in a-ketoglutarate level (trophozoites): -0.00422
- Log2 fold change in acetyl-CoA level (trophozoites): -0.783
- Log2 fold change in acetyl-aspartate level (trophozoites): -0.358
- Log2 fold change in alanine/sarcosine level (trophozoites): -0.389
- Log2 fold change in arginine level (trophozoites): -0.197
- Log2 fold change in asparagine level (trophozoites): -0.111
- Log2 fold change in aspartate level (trophozoites): -0.858
- Log2 fold change in coenzyme A level (trophozoites): -0.813
- Log2 fold change in cyclic-AMP level (trophozoites): -0.306
- Log2 fold change in cytidine level (trophozoites): -0.308
- Log2 fold change in dCDP level (trophozoites): 0.078
- Log2 fold change in dCMP level (trophozoites): 0.286
- Log2 fold change in dCTP level (trophozoites): -0.396
- Log2 fold change in dGDP/ADP level (trophozoites): -0.020
- Log2 fold change in dGMP/AMP level (trophozoites): 0.757
- Log2 fold change in dTDP level (trophozoites): -0.522
- Log2 fold change in dTMP level (trophozoites): 0.797
- Log2 fold change in dTTP level (trophozoites): -1.044
- Log2 fold change in dihydroorotate level (trophozoites): 4.182
- Log2 fold change in folate level (trophozoites): -0.409
- Log2 fold change in fructose-1-6-bisphosphate level (trophozoites): -0.330
- Log2 fold change in fructose-6-phosphate level (trophozoites): -0.341
- Log2 fold change in fumarate level (trophozoites): -0.377
- Log2 fold change in glutamate level (trophozoites): 0.025
- Log2 fold change in glutamine level (trophozoites): -0.211
- Log2 fold change in glutathione disulfide level (trophozoites): -0.238
- Log2 fold change in glutathione level (trophozoites): -0.129
- Log2 fold change in guanosine level (trophozoites): -0.368
- Log2 fold change in histidine level (trophozoites): -0.281
- Log2 fold change in hydroxyproline/Aminolevulinate level (trophozoites): -0.316
- Log2 fold change in hypoxanthine level (trophozoites): -0.322
- Log2 fold change in inosine level (trophozoites): -0.490
- Log2 fold change in isoleucine level (trophozoites): -0.515
- Log2 fold change in lysine level (trophozoites): 0.274
- Log2 fold change in malate level (trophozoites): -0.381
- Log2 fold change in maleic acid level (trophozoites): -0.226
- Log2 fold change in methionine level (trophozoites): -0.384
- Log2 fold change in nicotinate level (trophozoites): -0.467
- Log2 fold change in orotate level (trophozoites): 0.364
- Log2 fold change in pantothenate level (trophozoites): -0.383
- Log2 fold change in phenylalanine level (trophozoites): -0.490
- Log2 fold change in phosphoenolpyruvate level (trophozoites): -0.226
- Log2 fold change in proline level (trophozoites): -0.424
- Log2 fold change in pyruvate level (trophozoites): -0.797
- Log2 fold change in ribose level (trophozoites): -0.358
- Log2 fold change in ribose-phosphate level (trophozoites): -0.355
- Log2 fold change in ribulose-5-phosphate level (trophozoites): -0.161
- Log2 fold change in serine level (trophozoites): -0.067
- Log2 fold change in sn-glycerol-3-phosphate level (trophozoites): 0.064
- Log2 fold change in succinate/Methylmalonic acid level (trophozoites): -0.878
- Log2 fold change in thiamine level (trophozoites): -0.352
- Log2 fold change in threonine/homoserine level (trophozoites): -0.156
- Log2 fold change in tryptophan level (trophozoites): -0.225
- Log2 fold change in tyrosine level (trophozoites): -0.394
- Log2 fold change in xanthosine level (trophozoites): -0.306
- Log2 fold change in xanthosine-5-phosphate level (trophozoites): -0.737
